For 18 compounds, pAct, Kd and remaining activity results are on record in PMC7761830, “Structure-Based Virtual Screening of Ultra-Large Library Yields Potent Antagonists for a Lipid GPCR” (Biomolecules, 2020).

One assay deals with CysLT1R. The following applies: cited from earlier work; for pAct: CysLT1R, ChEMBL value, ref 29 (ChEMBL).
The target of a further assay is T1, wild-type CysLT1R (Homo sapiens, UniProt Q9Y271).
T1 construct: expressed in transfected cells; host or cells: HEK293 (ATCC CRL-1573), transient transfection with Lipofectamine 3000
T1 sequence (Q9Y271 1-337): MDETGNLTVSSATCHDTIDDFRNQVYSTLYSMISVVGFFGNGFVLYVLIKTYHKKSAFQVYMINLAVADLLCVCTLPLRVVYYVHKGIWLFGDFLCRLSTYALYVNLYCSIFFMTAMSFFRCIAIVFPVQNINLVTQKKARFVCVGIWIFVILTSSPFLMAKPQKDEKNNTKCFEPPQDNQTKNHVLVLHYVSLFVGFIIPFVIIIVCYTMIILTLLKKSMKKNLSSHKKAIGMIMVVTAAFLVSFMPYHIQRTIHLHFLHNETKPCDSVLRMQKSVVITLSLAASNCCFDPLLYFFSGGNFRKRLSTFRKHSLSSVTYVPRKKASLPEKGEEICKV
The experiment in a line: IP1 production assay, antagonist mode, co-stimulation with EC80 LTD4. The assay is classed as cell-based.

Another assay concerns the target T2, wild-type CysLT2R (Homo sapiens, UniProt Q9NS75).
T2 construct: expressed in transfected cells; host or cells: HEK293 (ATCC CRL-1573), transient transfection with Lipofectamine 3000
T2 sequence (Q9NS75 1-346): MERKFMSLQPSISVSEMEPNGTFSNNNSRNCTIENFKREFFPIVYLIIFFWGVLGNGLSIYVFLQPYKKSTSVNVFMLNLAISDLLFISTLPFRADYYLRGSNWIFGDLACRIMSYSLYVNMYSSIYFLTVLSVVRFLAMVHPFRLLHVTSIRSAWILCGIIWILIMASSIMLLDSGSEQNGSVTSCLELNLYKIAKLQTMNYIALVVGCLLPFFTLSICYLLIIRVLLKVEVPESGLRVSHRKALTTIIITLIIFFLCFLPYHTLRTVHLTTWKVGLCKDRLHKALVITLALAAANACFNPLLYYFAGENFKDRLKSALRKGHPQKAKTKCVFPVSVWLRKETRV
The assay is described as above. The format is cell-based.

For the compound `Cc1c(Cl)cccc1CCCCOc1ccc(C#Cc2cccc3c(CCCC(=O)O)c(C)n(CC(=O)O)c23)cc1` [CHEMBL3597618, Cc1c(CCCCOc2ccc(C#Cc3cccc4c(CCCC(O)=O)c(C)n(CC(O)=O)c34)cc2)cccc1[Cl]], the pAct with CysLT1R was 9.7.
On to `COc1cc(C(=O)NS(=O)(=O)c2ccccc2C)ccc1Cc1cn(C)c2ccc(NC(=O)OC3CCCC3)cc12` [CHEMBL603, Cc1ccccc1S(NC(c1ccc(Cc2cn(C)c3ccc(cc23)NC(=O)OC2CCCC2)c(c1)OC)=O)(=O)=O], for which the pAct in the assay on CysLT1R was 11.4.
As to `O=C(Nc1cccc2c(=O)cc(-c3nn[nH]n3)oc12)c1ccc(OCCCCc2ccccc2)cc1` [CHEMBL21333, C(CCOc1ccc(cc1)C(Nc1cccc2C(C=C(c3nn[nH]n3)Oc12)=O)=O)Cc1ccccc1], in the assay on CysLT1R, the pAct is recorded as 9.1.
Regarding `COc1ccc(NS(=O)(=O)C(F)(F)F)cc1C[C@H]1[C@@H](CO)c2cc(OCc3ccc4ccc(C)cc4n3)ccc2OC1(C)C` [CHEMBL1214531, Cc1ccc2ccc(COc3ccc4c(c3)[C@H](CO)[C@H](Cc3cc(ccc3OC)NS(C(F)(F)F)(=O)=O)C(C)(C)O4)nc2c1], the pAct with CysLT1R is given as 8.4.
For `CC(C)(O)c1ccccc1CC[C@@H](SCC1(CC(=O)O)CC1)c1cccc(C=Cc2ccc3c(n2)CCS3)c1` [CHEMBL140058, CC(C)(c1ccccc1CC[C@H](c1cccc(C=Cc2ccc3c(CCS3)n2)c1)SCC1(CC1)CC(O)=O)O], the pAct in the assay with CysLT1R is 8.5.
Take `COc1cc(C(=O)NS(=O)(=O)c2ccccc2C)ccc1Cc1cn(C)c2ccc(NC(=O)NC3CCCC3)cc12` [CHEMBL431348]: the Kd at CysLT1R (activity of the ligand from ChEMBL, ref ChEMBL, read-out: Kd (CysLT1)) is 0.79 nM.
Turning to `O=C(O)c1cc(Cl)cc2c(=O)cc(-c3cccc(C=Cc4ccc5ccccc5n4)c3)oc12` [CHEMBL416769, C(=Cc1ccc2ccccc2n1)c1cccc(c1)C1=CC(c2cc(cc(C(O)=O)c2O1)[Cl])=O], the pAct in the assay with CysLT1R is recorded as 8.0.
With `CN(C)C(=O)CCS[C@H](SCCC(=O)O)c1cccc(C=Cc2ccc3ccc(Cl)cc3n2)c1.[Na]` [CHEMBL89340, CN(C)C(CCS[C@@H](c1cccc(C=Cc2ccc3ccc(cc3n2)[Cl])c1)SCCC(O)=O)=O.[Na]], in the assay with CysLT1R, the pAct is reported as 8.5.
With `O=C(Nc1ccc2ccc(OCc3ccc4ccccc4n3)cc2c1)OCc1ccc(C(=O)O)cc1` [CHEMBL132167, C(c1ccc(cc1)C(O)=O)OC(Nc1ccc2ccc(cc2c1)OCc1ccc2ccccc2n1)=O], the pAct with CysLT1R is reported as 8.0.
On to `O=C(O)CC(NC(=O)c1ccc(Cl)c(N2CCNC2=O)c1)c1ccccc1` (stereo not drawn) [BRI-12311], for which the values for the remaining activity at 30 µM on wild-type CysLT1R and at wild-type CysLT2R were 77.5% and 91%, respectively.
In the same order, the values of `NC(=O)COc1cccc(C(=O)NC(CC(=O)O)c2ccc(Cl)c(F)c2)c1` (stereo not drawn) [BRI-12330] are 72.1% and 93.4%.
Take `Cn1c(Cn2cc(-c3nnco3)ccc2=O)nc2cc(Cl)ccc21` [BRI-12337]: the remaining activity at 30 µM at wild-type CysLT1R was 72%; on wild-type CysLT2R, 91.3%.
Taken in the same sequence, the figures for `C[S+]([O-])Cc1cccc(NC(=O)CC2(C(=O)O)Cc3ccccc3C2)c1` (stereo not drawn) [BRI-12326] were 79.3% and 71%.
In the same order, the values of `O=C(c1ccc2nnnn2c1)N1CC=C(c2c[nH]c3ccccc23)CC1` [BRI-12332] are 96.7% and 91.2%.
In the same order, the values of `CCN(CC)C(=O)c1ccc(C(=O)OCc2cc(C(C)=O)no2)cc1` [BRI-12434] are 57.6% and 62%.
In the case of `O=C(Nc1ccc(C(=O)NC2CCCCC2)c(O)c1)c1ccc(F)c(S(=O)(=O)NC2CC2)c1` [BRI-12446], the remaining activity at 30 µM turned out to be 72.4% on wild-type CysLT1R and 67.7% on wild-type CysLT2R.
In the same order, the values of `CC1CC1C(=O)NCCC(=O)Nc1cccc(Cl)c1-n1cncn1` (stereo not drawn) [BRI-12336] are 77.3% and 92.1%.
In the same order, the values of `CC1=C(C(=O)Nc2ccccc2)C(c2ccncc2)n2nc(CCCO)nc2N1` (stereo not drawn) [BRI-12325] are 76.1% and 79.3%.
